Measured values taken from the NIST ThermoML archive (doi:10.1016/j.jct.2012.03.013).

Columns and labels:
[1] = Liquid; for speed of sound: Pulse-echo method
[2] = molar heat capacity at constant pressure; details: Liquid, Acoustic Method
[3] = refractive index (Na D-line) (dimensionless); details: 298.15 K; 101.33 kPa; Liquid; Standard Abbe refractometry

OCCCCO [1,4-butanediol]
[1]
Details	mass density [kg/m3]
313.15 K, 90000 kPa, Acoustic method	1038.68
313.15 K, 100000 kPa, Acoustic method	1042
318.15 K, 100 kPa, Acoustic method	1000.67
318.15 K, 101.33 kPa, Vibrating tube method	1000.67
318.15 K, 10000 kPa, Acoustic method	1005.17
318.15 K, 20000 kPa, Acoustic method	1009.52
318.15 K, 30000 kPa, Acoustic method	1013.71
318.15 K, 40000 kPa, Acoustic method	1017.75
318.15 K, 50000 kPa, Acoustic method	1021.65
318.15 K, 60000 kPa, Acoustic method	1025.43
318.15 K, 70000 kPa, Acoustic method	1029.09
318.15 K, 80000 kPa, Acoustic method	1032.64
318.15 K, 90000 kPa, Acoustic method	1036.09
318.15 K, 100000 kPa, Acoustic method	1039.45
323.15 K, 101.33 kPa, Vibrating tube method	997.61
328.15 K, 101.33 kPa, Vibrating tube method	994.53
333.15 K, 101.33 kPa, Vibrating tube method	991.44
338.15 K, 101.33 kPa, Vibrating tube method	988.31
343.14 K, 101.33 kPa, Vibrating tube method	985.17
348.15 K, 101.33 kPa, Vibrating tube method	982.01
353.15 K, 101.33 kPa, Vibrating tube method	978.82

Details	molar heat capacity at constant pressure [J/K/mol]	speed of sound [m/s]
[1], 318.15 K, 101.33 kPa	–	1555.2
[1], 318.17 K, 30390 kPa	–	1649.8
[1], 318.17 K, 45590 kPa	–	1692.6
[1], 318.17 K, 60790 kPa	–	1733.4
[1], 318.17 K, 75990 kPa	–	1772
[1], 318.18 K, 15200 kPa	–	1603.3
[1], 318.18 K, 91180 kPa	–	1809.4
[1], 318.18 K, 101320 kPa	–	1832.7
[1], 318.2 K, 100 kPa	–	1555.3
[2], 298.15 K, 10000 kPa	202.7	–
[2], 298.15 K, 20000 kPa	202.4	–
[2], 298.15 K, 30000 kPa	202	–
[2], 298.15 K, 40000 kPa	201.7	–
[2], 303.15 K, 10000 kPa	205.5	–
[2], 303.15 K, 20000 kPa	205.1	–
[2], 303.15 K, 30000 kPa	204.7	–
[2], 303.15 K, 40000 kPa	204.4	–
[2], 303.15 K, 50000 kPa	204.1	–
[2], 303.15 K, 60000 kPa	203.8	–
[2], 303.15 K, 70000 kPa	203.5	–
[2], 303.15 K, 80000 kPa	203.2	–
[2], 303.15 K, 90000 kPa	202.9	–
[2], 308.15 K, 10000 kPa	208.3	–
[2], 308.15 K, 20000 kPa	207.9	–
[2], 308.15 K, 30000 kPa	207.6	–
[2], 308.15 K, 40000 kPa	207.2	–
[2], 308.15 K, 50000 kPa	206.9	–
[2], 308.15 K, 60000 kPa	206.6	–
[2], 308.15 K, 70000 kPa	206.3	–
[2], 308.15 K, 80000 kPa	206	–
[2], 308.15 K, 90000 kPa	205.7	–
[2], 308.15 K, 100000 kPa	205.4	–
[2], 313.15 K, 10000 kPa	211.2	–
[2], 313.15 K, 20000 kPa	210.8	–
[2], 313.15 K, 30000 kPa	210.4	–
[2], 313.15 K, 40000 kPa	210.1	–
[2], 313.15 K, 50000 kPa	209.7	–
[2], 313.15 K, 60000 kPa	209.4	–
[2], 313.15 K, 70000 kPa	209.1	–
[2], 313.15 K, 80000 kPa	208.8	–
[2], 313.15 K, 90000 kPa	208.5	–
[2], 313.15 K, 100000 kPa	208.2	–
[2], 318.15 K, 10000 kPa	214.2	–
[2], 318.15 K, 20000 kPa	213.8	–
[2], 318.15 K, 30000 kPa	213.4	–
[2], 318.15 K, 40000 kPa	213	–
[2], 318.15 K, 50000 kPa	212.7	–
[2], 318.15 K, 60000 kPa	212.3	–
[2], 318.15 K, 70000 kPa	212	–
[2], 318.15 K, 80000 kPa	211.7	–
[2], 318.15 K, 90000 kPa	211.4	–
[2], 318.15 K, 100000 kPa	211.1	–

Details	refractive index
[3]	1.4447
